Results published in publication PMC12040169 (PLOS Biology, 2025).

Assay: in vitro
Settings: human, hela cells, % viability

SMILES	viability at 28.5 h, 10 µM [%]
CN(CC(=O)O)c1ccccc1C(=O)O [CBK260996]	98.2
CN1CCN(CC(=O)C(C#N)c2ccccc2)CC1 (stereo not shown) [CBK269270]	87.7
O=C(O)CCCC(=O)N1N=C(c2ccccc2)CC1c1ccc2nccnc2c1 (stereo not shown) [CBK286752]	89.4
CN1CCN(S(=O)(=O)c2ccc(N3CCOCC3)nc2)CC1 [CBK062434]	87.9
CS(=O)(=O)N1CCC(Oc2nccnc2OCc2ccc(Cl)c(Cl)c2)CC1 [CBK144910]	90.5
COc1cc(Cl)cc(CNCCO)c1OC(C)C [CBK269196C]	86.7
O=C(Nc1ccc(Oc2ccccc2)cc1)c1cnc2n(c1=O)CCS2 [CBK287377]	95.1
O=C(CO)N1CC2(CCN(CCc3c[nH]c4ccccc34)CC2)c2ccccc21 [CBK131503]	98.5
CCN(CC)CCn1c(-c2ccccc2)c(OCCO)c2ccccc2c1=O [CBK010078]	96.9
O=C(O)/C=C\C(=O)N(C1CCCCC1)C1CCCCC1 [CBK286562]	92
O=c1c2cc(F)ccc2nc2n1CCN(Cc1cccs1)CC2 [CBK284859]	110
O=C(Nc1nnn[nH]1)C1(c2ccc([N+](=O)[O-])cc2)CCCC1 [CBK267237]	93.7
CC(C)(C)c1ccc(-c2cc(C3CCNCC3)n[nH]2)cc1 [CBK270240]	94
O=C(Nc1nc2ccc(Cl)cc2s1)c1nc(SCc2ccccc2)ncc1Cl [CBK268825]	98.2
CC(C)[C@H](CO)NC(=O)c1cnc(-c2ccc(Cl)cc2)c(-c2ccco2)c1 [CBK036658]	108
Nc1ccc2c(-c3ccc(OC(F)(F)F)cc3)ccnc2n1 [CBK067649]	89.1
COc1ccccc1C(=O)O/N=C1/CCCc2c1ccc(OC)c2[N+](=O)[O-] [CBK263555]	102
OC(CN1CCC(Oc2cccc(F)c2)CC1)c1cccs1 (stereo not shown) [CBK281453]	88.8
CC(NC(=O)c1ncoc1-c1ccc(F)cc1)c1cccnc1 (stereo not shown) [CBK282358]	103
CNCC1CCN(C(=O)c2ccc(Oc3cccnc3)cc2)C1 (stereo not shown) [CBK304697]	91.5
COc1ccc(C2Nc3ccccc3C(=O)N2c2ccc(C)cc2)cc1Cn1nc(C)c([N+](=O)[O-])c1C (stereo not shown) [CBK263703]	106
Cc1nnc(-c2cc(CC(C)C)n(-c3cccc(C(=O)N4CC=CCC4)c3)n2)o1 [CBK114630]	91.6

SMILES	viability at 28.5 h, 10 µM [%]
O=C1NC(=O)C2(CCN(C(=O)c3csc4c3CCCC4)CC2)N1 [CBK305601]	97.2
COc1ccc(C(=O)CCCN2CCc3c([nH]c4ccc(OC)cc34)C2)cc1 [CBK083515T]	101
Cc1nn(-c2ccccn2)c(C)c1[C@@H]1C=C[C@@H](NS(C)(=O)=O)C1 [CBK289169]	86.8
O=C(N[C@H]1CO[C@H]2[C@@H]1OC[C@@H]2n1nnnc1-c1ccccc1)c1ccccc1 [CBK289482]	120
Fc1cc(Br)ccc1-c1cnn(-c2ccccc2)n1 [CBK112925]	103
Cc1cc(N2CCN(C(=O)CCc3nccs3)CC2)nc(C(C)C)n1 [CBK304778]	98.8
Cc1ccc(C(=O)CN2CCC3(CC2)NCCc2c3[nH]c3ccc(F)cc23)cc1 [CBK039503]	107
OCCNc1nc(Nc2ccc(Br)cc2)nc2ccccc12 [CBK266724C]	87.7
CN1[C@@H](CCC(=O)N2CCc3ccccc32)CNC(=O)[C@@H]2[C@H]1CCN2Cc1ccc(O)cc1 [CBK289021]	88.9
CC(C)(C)OC(=O)N1CCC(c2nc3ccccc3cc2N)CC1 [CBK285038]	82.6
Cc1cc(C)c2cc(C)c3nn(CC(=O)N(C)C)c(=O)n3c2c1 [CBK283821]	81.8
O=C(Nc1nnc(-c2ccc3c(c2)OCCO3)o1)c1cccc(F)c1 [CBK287402]	101
O=C(O)C[S+]([O-])c1ccccc1C(=O)O (stereo not shown) [CBK263244]	96.3
COC(=O)c1sc2cc(NC(=S)NNC(=O)c3ccoc3C)ccc2c1Cl [CBK266877]	83.3
O=C1CC[C@@H](NCc2cccnc2)[C@H](c2cc(F)cc(F)c2)N1 [CBK283130]	90.9
O=C(Cn1c[n+]([N-][N+](=O)[O-])cn1)Nc1ncc(Br)cc1Br [CBK262342]	90.9
Cc1ccc(S(=O)(=O)N(CC(=O)O)c2ccc(C(C)C)cc2)cc1 [CBK287116]	85.3
CC(=O)c1ccc(-c2nccnc2N[C@@H]2CCN(Cc3ccccc3)C2)s1 [CBK036981]	104
Cc1ccc(C2SCC(C(=O)O)N2C(=O)c2cccc(Cl)c2)cc1 (stereo not shown) [CBK286931]	93.3
CCN(CC)CCNC(=O)c1cc(=O)c2ccccc2o1 [CBK010691]	114
CCCN1CCCC(c2cccc(O)c2)C1 (stereo not shown) [CBK016405B]	92.6
Cc1cccc(CC(=O)N2CCC(Cc3ccccc3-c3ccccc3)(C(N)=O)CC2)c1 [CBK285731]	103

SMILES	viability at 28.5 h, 10 µM [%]
CCOc1ccc(-c2cncc(NCCc3c[nH]c4ccccc34)n2)cc1 [CBK065876]	93
COc1ccc(Nc2nc(-c3cccc(-c4ccccc4)c3)cnc2N)cc1 [CBK063593]	89.8
NC(=O)c1c(NC(=O)c2ccc(S(=O)(=O)N3CCCC3)cc2)sc2c1CCCC2 [CBK262486]	106
Cc1cc(COc2cc(NC(C)C)ncn2)no1 [CBK115887]	92.7
O=C(NC(Cc1ccsc1)c1nccs1)C1CCOCC1 (stereo not shown) [CBK282824]	96.4
O=C(NC1CCN(CC2(c3ccccc3)CC2)CC1)c1cc[nH]n1 [CBK285351]	88.4
CCN(Cc1cnn(C)c1)[C@H]1CCO[C@@H](c2ccccc2-c2ccc(OC)cc2)C1 [CBK285854]	98
O=S(=O)(O)CCCSc1nc2ccccc2o1 [CBK026507N]	97.2
Cc1cccnc1C(c1ccccc1)N(C)C(=O)C1CCN(C(=O)OCc2ccccc2)CC1 (stereo not shown) [CBK060522]	93.9
COC(=O)COc1nccnc1-c1ccc(C)c(C)c1 [CBK106871]	83.3
COCCCn1c(CCC(=O)O)ccc1-c1ccc(Br)cc1 [CBK268015]	97.6
Cc1nnc(CN(CC2CCCO2)C2CCC(C)CC2)n1C (stereo not shown) [CBK305548]	95.2
CN(C(=O)COC(=O)c1cc(-c2ccco2)nc2ccccc12)C1(C#N)CCCCC1 [CBK295591]	93.2
Cc1ccc(NC(C(N)=O)c2c(C)[nH]c(=O)[nH]c2=O)cc1 (stereo not shown) [CBK111355]	98.4
N#Cc1cccc(CN2C[C@H](O)C[C@H]2c2nc(-c3ccc4c(c3)OCO4)no2)c1 [CBK288866]	90
CCC(CO)Nc1cncc(-c2cccc(N)c2)n1 (stereo not shown) [CBK065278]	103
CCCC(=O)Nc1cc(S(=O)(=O)NC)ccc1C [CBK024770]	91.8
Cc1ccc(NS(=O)(=O)c2cc(C(=O)O)ccc2Cl)cc1S(=O)(=O)N1CCOCC1 [CBK296954]	113
CCOC(=O)C1CCN(Cc2c(O)c3ccccc3oc2=O)CC1 [CBK266035]	70.6
CN1CCN(C(=O)c2ccc(-c3cnc4[nH]c(=O)n(Cc5ccncc5)c4n3)cc2)CC1 [CBK064679]	101
O=C(CC1Sc2ccccc2NC1=O)Nc1ccc(C(F)(F)F)cc1 (stereo not shown) [CBK287585]	88.6
CC(=O)Nc1ccc(S(=O)(=O)N2CCCC(CO)C2)cc1 (stereo not shown) [CBK262108]	98.6

SMILES	viability at 28.5 h, 10 µM [%]
Cc1cccc2c3c([nH]c12)C1(CCN(CCCC#N)CC1)NCC3 [CBK039818]	90.8
O=[N+]([O-])c1ccc(Oc2ccccc2)nc1 [CBK002726]	85.8
CN(CC(=O)N1CCC(Cc2ccccc2)CC1)S(=O)(=O)c1ccc2ccccc2c1 [CBK266931]	78.2
Cc1ccc2[nH]c(CNC(=O)c3cn[nH]c3C3CCCCN3)nc2c1 (stereo not shown) [CBK304741]	100
Cc1ccc([N+](=O)[O-])cc1S(=O)(=O)NCC(=O)O [CBK266234]	94.7
O=C(O)COCCn1cc(-c2ccc(Cl)cc2)cn1 [CBK021914]	84.5
O=C(O)c1ccc(-c2ccc(/C=C/c3[nH]c(=O)[nH]c(=O)c3[N+](=O)[O-])o2)cc1 [CBK268055]	105
O=S(=O)(c1ccc(C(F)(F)F)cc1)c1ccc2nccc(N3CCNCC3)c2c1 [CBK200016C]	91.2
Cc1ccc(Cl)cc1NC(=O)CC1NCCNC1=O (stereo not shown) [CBK267246]	97
COC1C(O)C(CO)OC1n1cc(C)c(=O)[nH]c1=O (stereo not shown) [CBK201251]	103
Nc1nn2c(c1Cc1c(Cl)cccc1Cl)OC(=O)CCC2=O [CBK093439]	113
COc1ccc(-c2cnn3c(N)c4c(nc23)CCC4)cc1 [CBK287987]	97.4
CC1CCN(S(=O)(=O)c2ccc(C(=O)N3CCC(C(=O)O)CC3)cc2)CC1 [CBK297097]	105
CN1CCC(N(C)C(=O)NC(c2ccccc2)c2ccccc2)C1 (stereo not shown) [CBK156000]	96.4
C=CCc1c(O)nc(SCC(=O)N2CCOCC2)[nH]c1=O [CBK073301]	91.8
O=C(Cn1nc(C(F)(F)F)c2c1CCC2)N1CCN(Cc2ccccc2)CC1 [CBK266113]	109
COc1cc(/C=N/c2ccc(/N=C/c3cc(Br)c(O)c(OC)c3)cc2)cc(Br)c1O [CBK261843]	82.7
COc1ccc(C(C)C)cc1-c1cnc(N)c(NCc2ccncc2)n1 [CBK063695]	97.5
Cn1c(=O)n(C)c2cc(CNCc3ccccn3)ccc21 [CBK288118]	95.4

Same assay, conditions: human, hela cells, % viability, bulk resorufin, single well

SMILES	viability at 28.5 h, 10 µM [%]
Cc1cc(/C=C2\C(=O)NC(=O)N(c3ccccc3F)C2=O)c(C)n1-c1cc(C(=O)O)cc(C(=O)O)c1 [CBK264028]	89.9
COC(=O)c1nn(Cc2ccc(OC)cc2)c2ccccc12 [CBK093526]	31.4
COc1cc(-c2ccc3c(c2)COC2(CCN(C(=O)OC(C)(C)C)CC2)O3)ccc1O [CBK116310]	116
